In PubChem BioAssay AID1259411 (Chemical Carcinogenesis Research Information System (CCRIS), 2018) one finds carcinogen call data, which are given here for one compound.

Active and inactive are the calls of the source. No rule for the calls is given here.

For the series, the system named is rodent carcinogenicity bioassays, tumor incidence. The series can be described thus: CCRIS carcinogenicity studies. The procedure, abridged:
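Archive of carcinogenicity, mutagenicity, tumor promotion and tumor inhibition results drawn from journals, NCI reports and other sources, expert-reviewed; covers 1985-2011 and is no longer updated.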

On to `c1ccc2c(c1)cc1ccc3cccc4ccc2c1c34`, for which the carcinogen call is “inactive; negative” (Species: FISH, Strain/Sex: MT. SHASTA RAINBOW TROUT/MALE, FEMALE, Route: TRANSCHORIONIC INJECTION, Dose: 0, 0.09, 0.9, 9 UG IN DMSO ADMINISTERED IN OVO APPROXIMATELY 2 DAYS PRIOR TO HATCHING (STUDY DURATION: 1 YR), Dose: 0, 0.09, 0.9, 9 UG IN DMSO ADMINISTERED IN OVO APPROXIMATELY 2 DAYS PRIOR TO HATCHING (STUDY DURATION: 1 YR)); “active; positive” (Species: FISH, Strain/Sex: MT. SHASTA RAINBOW TROUT/MALE, FEMALE, Route: TRANSCHORIONIC INJECTION, Dose: 0, 4.5, 9, 18 UG IN DMSO ADMINISTERED IN OVO APPROXIMATELY 2 DAYS PRIOR TO HATCHING, Dose: 0, 4.5, 9, 18 UG IN DMSO ADMINISTERED IN OVO APPROXIMATELY 2 DAYS PRIOR TO HATCHING, Tumor Site: Type of Lesion: LIVER: TUMOR); “active; positive” (Species: FISH, Strain/Sex: RAINBOW TROUT/MALE, FEMALE, Route: INTRAPERITONEAL, Dose: 0, 1 MG IN 0.4 ML PROPYLENE GLYCOL 1/MO FOR 12 MO BEGINNING AT 10 MO OF AGE (STUDY DURATION: 18 MO), Tumor Site: Type of Lesion: LIVER: CARCINOMA); “active; positive” (Species: FISH, Strain/Sex: RAINBOW TROUT/MALE, FEMALE, Route: ORAL, Dose: 0, 1000 PPM IN DIET FOR 18 MO (STUDY DURATION: 18 MO), Tumor Site: Type of Lesion: LIVER: CARCINOMA); “inactive; negative” (Species: FISH, Strain/Sex: SHEEPSHEAD MINNOW/MALE, FEMALE, Route: IMMERSION, Dose: 0, 2, 30, 200 PPB APPROXIMATE CONCENTRATIONS ADMINISTERED 1/WK FOR 6 OR 24 HR FOR 1 OR 2 WK (STUDY DURATION: 39 WK), Dose: 0, 2, 30); “active; positive” (Species: HAMSTER, Route: GAVAGE, Tumor Site: Type of Lesion: FORESTOMACH: PAPILLOMA, CARCINOMA). For the same compound, the carcinogen call runs as follows: (Species: HAMSTER, Route: INTRATRACHEAL, Tumor Site: Type of Lesion: LUNG) “active; positive”; (Species: HAMSTER, Route: ORAL, Dose: 500 PPM IN DIET 4 D/WK FOR UP TO 14 MO, Tumor Site: Type of Lesion: ESOPHAGUS, FORESTOMACH, INTESTINES, Tumor Site: Type of Lesion: ESOPHAGUS, FORESTOMACH, INTESTINES) “active; positive”; (Species: HAMSTER, Route: SUBCUTANEOUS, Dose: 2.5 MG, 3 MO, Tumor Site: Type of Lesion: INJECTION SITE: SARCOMA) “active; positive”; (Species: HAMSTER, Route: SUBCUTANEOUS, Tumor Site: Type of Lesion: INJECTION SITE: SARCOMA) “active; positive”; (Species: HAMSTER, Strain/Sex: MALE,FEMALE, Route: INTRATRACHEAL, Dose: 0.25-2 MG, 1/WK FOR 30 WK, Tumor Site: Type of Lesion: RESPIRATORY TRACT) “active; positive”; (Species: HAMSTER, Strain/Sex: SYRIAN/FEMALE, Route: INTRATRACHEAL, Dose: 0, 1 MG IN 0.1 ML PHOSPHATE BUFFER 15/WK FOR 4 MO (STUDY DURATION: 443 D), Tumor Site: Type of Lesion: TRACHEA: PAPILLOMA OR CARCINOMA) “active; positive”. Also, the carcinogen call is, setting by setting: (Species: HAMSTER, Strain/Sex: SYRIAN/MALE,FEMALE, Route: SUBCUTANEOUS, Dose: 0.0005-80 MG, 10 DOSES, Tumor Site: Type of Lesion: INJECTION SITE: SARCOMA) “active; positive”; (Species: HAMSTER, Strain/Sex: SYRIAN/MALE, Route: GAVAGE, Dose: 2-5 MG 2/WK FOR 1-11 MO, Tumor Site: Type of Lesion: STOMACH: CARCINOMA, PAPILLOMA) “active; positive”; (Species: MONKEY, Route: INTRATRACHEAL, Dose: 3-15 MG, 1/WK, Tumor Site: Type of Lesion: LUNG: SQUAMOUS CARCINOMA) “active; positive”; (Species: MONKEY, Strain/Sex: TUPAIA GLIS/MALE,FEMALE, Route: SUBCUTANEOUS, Dose: 10 MG, SINGLE DOSE, Tumor Site: Type of Lesion: INJECTION SITE: SARCOMA) “active; positive”; (Species: MOUSE, Route: SUBCUTANEOUS, Tumor Site: Type of Lesion: INJECTION SITE: SARCOMA) “active; positive”; (Species: MOUSE, Strain/Sex: A/J/MALE, Route: INTRAPERITONEAL, Dose: 0, 10, 100 MG/KG BW IN TRICAPRYLIN ONCE AT 4-5 WK OF AGE (STUDY DURATION: 7-8 MO), Dose: 0, 10, 100 MG/KG BW IN TRICAPRYLIN ONCE AT 4-5 WK OF AGE (STUDY DURATION: 7-8 MO), Tumor Site: Type of Lesion: LUNG: TUMOR) “active; positive”. The carcinogen call (Species: MOUSE, Strain/Sex: B6C3F1/FEMALE, Route: ORAL, Dose: 0, 5, 25, 100 PPM IN DIET FOR 2 YR (STUDY DURATION: 2 YR), Dose: 0, 5, 25, 100 PPM IN DIET FOR 2 YR (STUDY DURATION: 2 YR), Tumor Site: Type of Lesion: FORESTOMACH: PAPILLOMA OR CARCINOMA, ESOPHAGUS: PAPILLOMA OR CARCINOMA, TONGUE: PAPILLOMA OR CARCINOMA, Tumor Site: Type of Lesion: FORESTOMACH: PAPILLOMA OR CARCINOMA, ESOPHAGUS: PAPILLOMA OR CARCINOMA, TONGUE: PAPILLOMA OR CARCINOMA) is “active; positive”; the carcinogen call (Species: MOUSE, Strain/Sex: B6C3F1/MALE, Route: INTRAPERITONEAL, Dose: 0, 0.005, 0.015 UMOL/G ONCE AT 12 DAYS OF AGE (STUDY DURATION: 10 MO), Dose: 0, 0.005, 0.015 UMOL/G ONCE AT 12 DAYS OF AGE (STUDY DURATION: 10 MO), Tumor Site: Type of Lesion: LIVER: HEPATOMA) is “active; positive”; the carcinogen call (Species: MOUSE, Strain/Sex: B6C3F1/MALE, Route: INTRAPERITONEAL, Dose: 0, 125, 250, 375 UG ADMINISTERED TO 15-DAY OLD MICE ONCE (STUDY DURATION: 52 WK), Dose: 0, 125, 250, 375 UG ADMINISTERED TO 15-DAY OLD MICE ONCE (STUDY DURATION: 52 WK), Tumor Site: Type of Lesion: LIVER: TUMOR) was “active; positive”.
